According to patent publication US4740233A, “Substituted 1,2,4-triazolo[1,5-a]-pyrimidine-2-sulfonamides and compositions and methods of controlling undesired vegetation and suppressing the nitrification of ammonium nitrogen in soil” (The Dow Chemical Company, priority 1986, dated 1988):

Tests used:
cotton = test: Postemergent control of plant species; assay type: in vivo, Gossypium spp.; conditions: Gossypium hirsutum, post-emergence, 336 h, read-out: percent postemergent control
Method: (§1) In representative operations, each compound to be utilized in a series of tests is dissolved in acetone to one-half of the final volume (twice the final concentration) to be used and the acetone solution in each case is admixed with an equal volume of water containing 0.1 percent by weight of surface active material. The compositions, generally in the nature of an emulsion, were employed to spray separate respective plant species which had been grown to a 2-4 leaf stage in soil of good nutrient content in a greenhouse. The various beds were positioned side by side and exposed to substantially identical conditions of temperature and light. Each bed was maintained so as to prevent any interaction with test compounds in different seed beds. Other plants were left untreated to serve as controls. After treatment, the plants were maintained for about two weeks under greenhouse conditions conducive for good plant growth and watered as necessary. Control refers to the reduction in growth compared to the observed results of the same untreated species.

rape = test: Postemergent control of plant species; assay type: in vivo, Brassica napus; conditions: Brassica napus, post-emergence, 336 h, read-out: percent postemergent control
Method: as §1

soybean = test: Postemergent control of plant species; assay type: in vivo, Glycine max.; conditions: Glycine max, post-emergence, 336 h, read-out: percent postemergent control
Method: as §1

sugar beet = test: Postemergent control of plant species; assay type: in vivo, Beta saccharifera; conditions: Beta vulgaris, post-emergence, 336 h, read-out: percent postemergent control
Method: as §1

jimsonweed = test: Postemergent control of plant species; assay type: in vivo, Datura stramonium; conditions: Datura stramonium, post-emergence, 336 h, read-out: percent postemergent control
Method: as §1

annual morning glory = test: Postemergent control of plant species; assay type: in vivo, Ipomoea spp.; conditions: Ipomoea, post-emergence, 336 h, read-out: percent postemergent control
Method: as §1

pigweed = test: Postemergent control of plant species; assay type: in vivo, Amaranthus spp.; conditions: Amaranthus retroflexus, post-emergence, 336 h, read-out: percent postemergent control
Method: as §1

velvetleaf = test: Postemergent control of plant species; assay type: in vivo, Abutilon theophrasti; conditions: Abutilon theophrasti, post-emergence, 336 h, read-out: percent postemergent control
Method: as §1

corn = test: Postemergent control of plant species; assay type: in vivo, Zea mays; conditions: Zea mays, post-emergence, 336 h, read-out: percent postemergent control
Method: as §1

rice [1] = test: Postemergent control of plant species; assay type: in vivo, Oryza sativa; conditions: Oryza sativa, post-emergence, 336 h, read-out: percent postemergent control
Method: as §1

sorghum = test: Postemergent control of plant species; assay type: in vivo, Sorghum vulgare; conditions: Sorghum, post-emergence, 336 h, read-out: percent postemergent control
Method: as §1

wheat = test: Postemergent control of plant species; assay type: in vivo, Triticum aestivum; conditions: Triticum aestivum, post-emergence, 336 h, read-out: percent postemergent control
Method: as §1

barnyardgrass [2] = test: Postemergent control of plant species; assay type: in vivo, Echinochloa crusgalli; conditions: Echinochloa crus-galli, post-emergence, 336 h, read-out: percent postemergent control
Method: as §1

crabgrass = test: Postemergent control of plant species; assay type: in vivo, Digitaria spp.; conditions: Digitaria sanguinalis, post-emergence, 336 h, read-out: percent postemergent control
Method: as §1

yellow foxtail = test: Postemergent control of plant species; assay type: in vivo, Setaria lutescens; conditions: Setaria, post-emergence, 336 h, read-out: percent postemergent control
Method: as §1

johnson grass = test: Postemergent control of plant species; assay type: in vivo, Sorghum halepense; conditions: Sorghum halepense, post-emergence, 336 h, read-out: percent postemergent control
Method: as §1

wild oats = test: Postemergent control of plant species; assay type: in vivo, Avena fatua; conditions: Avena fatua, post-emergence, 336 h, read-out: percent postemergent control
Method: as §1

yellow nutsedge [3] = test: Postemergent control of plant species; assay type: in vivo, Cyperus esculentus; conditions: Cyperus, post-emergence, 336 h, read-out: percent postemergent control
Method: as §1

[4] = test system: nitrification of ammonium nitrogen; test: Suppression of nitrification of ammonium nitrogen in soil; conditions: 27° C.
Procedure, shortened: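 Value is % NH4-N remaining after a two-week, 27° C incubation of treated soil held at 1/3 bar tension moisture. Nitrate was measured with an ion-selective electrode after extraction with ammonium sulfate solution and 10 min shaking.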

rice [5] = test: Control of aquatic plant species (paddy water); assay type: in vivo, Oryza sativa; conditions: Oryza sativa, 216 h, nine days, read-out: Percent control
Method: (§2) In testing for such utility, the plant species to be tested were transplanted into 16 oz. containers into about 2 inches of soil when they were in the 1-2 inch stage and then flooded to a depth of about 1 inch. An acetone concentrate of the chemical to be tested was then injected into the paddy water, the volume injected being varied as desired to provide the desired concentration. Percent control was evaluated nine days after application.

barnyardgrass [6] = test: Control of aquatic plant species (paddy water); assay type: in vivo, Echinochloa crusgalli; conditions: Echinochloa crus-galli, 216 h, nine days, read-out: Percent control
Method: as §2

sprangletop = test: Control of aquatic plant species (paddy water); assay type: in vivo, Leptochloa filiformis; conditions: Leptochloa filiformis, 216 h, nine days, read-out: Percent control
Method: as §2

yellow nutsedge [7] = test: Control of aquatic plant species (paddy water); assay type: in vivo, Cyperus esculentus; conditions: Cyperus, 216 h, nine days, read-out: Percent control
Method: as §2

Row | SMILES | plant injury at 500 ppm (cotton) [%] | plant injury at 500 ppm (rape) [%] | plant injury at 500 ppm (soybean) [%] | plant injury at 500 ppm (sugar beet) [%] | pest or weed control at 500 ppm (jimsonweed) [%] | pest or weed control at 500 ppm (annual morning glory) [%] | pest or weed control at 500 ppm (pigweed) [%] | pest or weed control at 500 ppm (velvetleaf) [%] | plant injury at 500 ppm (corn) [%] | plant injury at 500 ppm (rice [1]) [%] | plant injury at 500 ppm (sorghum) [%] | plant injury at 500 ppm (wheat) [%] | pest or weed control at 500 ppm (barnyardgrass [2]) [%] | pest or weed control at 500 ppm (crabgrass) [%] | pest or weed control at 500 ppm (yellow foxtail) [%] | pest or weed control at 500 ppm (johnson grass) [%] | pest or weed control at 500 ppm (wild oats) [%] | pest or weed control at 500 ppm (yellow nutsedge [3]) [%] | % NH4-N Remaining After 2 Weeks Incubation ([4]; 0.06 ppm) [%] | % NH4-N Remaining After 2 Weeks Incubation ([4]; 0.25 ppm) [%] | other results
1 | COC(=O)c1cccc(C)c1N(C)S(=O)(=O)c1nc2nc(C)cc(C)n2n1 [Compound 261] | 60 | 95 | 90 | 90 | 95 | 90 | 65 | 95 | 0 | 0 | 30 | 0 | 20 | 10 | 95 | 100 | 0 | 0 | 0 | 0 | % NH4-N Remaining After 2 Weeks Incubation ([4]; 1 ppm): 21%; % NH4-N Remaining After 2 Weeks Incubation ([4]; 4 ppm): 18%
2 | CSc1cccc(Cl)c1NS(=O)(=O)c1nc2nc(C)cc(C)n2n1 [Compound 69] | 90 | 90 | 40 | 100 | 90 | 80 | 100 | 85 | 90 | 0 | 80 | 0 | 80 | 80 | 90 | 95 | 0 | 80 | – | – | –
3 | O=S(=O)(Nc1c(Cl)cccc1Cl)c1nc2ncc(Cl)cn2n1 [Compound 114] | – | – | – | – | – | – | – | – | – | – | – | – | – | – | – | – | – | – | – | – | pest or weed control at 250 g/ha (rice [5]; 0.25 Kg/Ha): 0%; pest or weed control at 1000 g/ha (rice [5]; 1.0 Kg/Ha): 70%; pest or weed control at 250 g/ha (barnyardgrass [6]; 0.25 Kg/Ha): 80%; pest or weed control at 1000 g/ha (barnyardgrass [6]; 1.0 Kg/Ha): 95%; pest or weed control at 250 g/ha (sprangletop; 0.25 Kg/Ha): 0%; pest or weed control at 1000 g/ha (sprangletop; 1.0 Kg/Ha): 0%; pest or weed control at 250 g/ha (yellow nutsedge [7]; 0.25 Kg/Ha): 65%; pest or weed control at 1000 g/ha (yellow nutsedge [7]; 1.0 Kg/Ha): 90%
4 | Cc1cc(C)n2nc(S(=O)(=O)N(Cc3ccccc3)c3c(Cl)cccc3Cl)nc2n1 [Compound 265] | 0 | 60 | 40 | 80 | 0 | 60 | 70 | 0 | 0 | 0 | 0 | 0 | 0 | 0 | 0 | 0 | 0 | 0 | 0 | 0 | % NH4-N Remaining After 2 Weeks Incubation ([4]; 1 ppm): 0%; % NH4-N Remaining After 2 Weeks Incubation ([4]; 4 ppm): 17%
5 | Cc1cc(C)n2nc(S(=O)(=O)N(C)c3c(Cl)cccc3Cl)nc2n1 [Compound 260, 5,7,N-trimethyl-N-(2,6-dichlorophenyl)-1,2,4-triazolo[1,5-a]pyrimidine-2-sulfonamide] | 80 | 95 | 90 | 100 | 95 | 40 | 45 | 90 | 0 | 0 | 25 | 0 | 50 | 0 | 90 | 95 | 0 | 0 | 0 | 14 | % NH4-N Remaining After 2 Weeks Incubation ([4]; 1 ppm): 37%; % NH4-N Remaining After 2 Weeks Incubation ([4]; 4 ppm): 45%
6 | C=CCN(c1c(Cl)cccc1Cl)S(=O)(=O)c1nc2nc(C)cc(C)n2n1 [Compound 263] | 50 | 100 | 0 | 100 | 80 | 80 | 90 | 40 | 0 | 85 | 70 | 0 | 40 | 90 | 95 | 100 | 0 | 0 | 0 | 0 | % NH4-N Remaining After 2 Weeks Incubation ([4]; 1 ppm): 87%; % NH4-N Remaining After 2 Weeks Incubation ([4]; 4 ppm): 11%
7 | CCOC(=O)CN(c1c(C)cccc1C(=O)OC)S(=O)(=O)c1nc2nc(C)cc(C)n2n1 [Compound 266] | 10 | 75 | 80 | 30 | 90 | 85 | 25 | 75 | 0 | 40 | 0 | 0 | 75 | 70 | 80 | 0 | 0 | 0 | 0 | 0 | % NH4-N Remaining After 2 Weeks Incubation ([4]; 1 ppm): 2%; % NH4-N Remaining After 2 Weeks Incubation ([4]; 4 ppm): 13%
